Patent US20070286886A1, “Materials And Methods For Inducing Apoptosis In Adipocytes” (University of Tennessee Research Foundation, priority 2004, published 2007)
“Also recorded” adds a separate entry of the source.

Columns and labels:
Type in all cases: cell-based
[1] = tested on: caspase-3; assay: Caspase-3 mRNA expression by real-time PCR in 3T3-L1 and UCP2-transfected 3T3-L1 adipocytes
Protocol: 3T3-L1 preadipocytes were incubated at a density of 8000 cells/cm2 (10 cm2 dish) and grown in Dulbecco's modified Eagle's medium (DMEM) containing 10% FBS and antibiotics (adipocyte medium) at 37° C. in 5% CO2 in air. Confluent preadipocytes were induced to differentiate with a standard differentiation medium consisting of DMEM-F10 (1:1, vol/vol) medium supplemented with 1% FBS, 1 μM dexamethasone, IBMX (0.5 mM), and antibiotics (1% penicillin-streptomycin). Preadipocytes were maintained in this differentiation medium for 3 days and subsequently cultured in adipocyte medium. Cultures were re-fed every 2-3 days to allow 90% cells to reach full differentiation before they were chemically treated. Chemicals were freshly diluted in adipocyte medium before treatment. Cells were washed with fresh adipocyte medium, re-fed with medium containing the different treatments, and incubated at 37° C. in 5% CO2 in air before analysis. Cell viability was measured via trypan blue exclusion.
UCP2 full-length cDNAs were amplified by […] using mRNAs isolated from mouse white adipose tissues. The PCR primers for this amplification are shown as follows: UCP2 forward, 5′-[…]-3′, reverse, 5′-[…]-3′. The PCR products were then subcloned into pcDNA4/His expression vectors. The linearized constructs were transfected into 3T3-L1 preadipocytes using lipofectamine plus standard protocol (Invitrogen, Carlsbad, Calif.). After 48 h of transfection, cells were split and cultured in selective medium containing 400 ug/ml zeocin for the selection of resistant colonies. Cells were fed with selective medium every 3 days until resistant colonies could be identified. These resistant foci were picked, expanded, tested for expression, and frozen for future experiments.
A total cellular RNA isolation kit (Ambion, Austin, Tex.) was used to extract total RNA from 3T3-L1 cells according to the manufacturer's instructions.
Adipocyte caspase-1, caspase-3, Bcl-2, and Bax mRNA were quantitatively measured using a Smart Cycler Real Time PCR System (Cepheid, Sunnyvale, Calif.) with a TaqMan 1000 Core Reagent Kit (Applied Biosystems, Branchburg, N.J.). The primers and probe sets were ordered from Applied Biosystems TaqMan Assays-on-Demand Gene Expression primers and probe set collection according to the manufacturer's instructions. Pooled 3T3-L1 adipocyte total RNA was serial-diluted in the range of 1.5625-25 ng and used to establish a standard curve; total RNAs for unknown samples were also diluted in this range. Reactions of quantitative RT-PCR for standards and unknown samples were Cepheid, Sunnyvale, Calif.) and TaqMan Real Time PCR Core Kit. The mRNA quantitation for each sample was further normalized using the corresponding 18 s quantitation, with a forward primer, 5′-[…]-3′, and a reverse primer, 5′-[…]-3′.
3T3-L1 preadipocytes were incubated at a density of 8000 cells/cm2 (10 cm2 dish) and grown in Dulbecco's modified Eagle's medium (DMEM) containing 10% FBS and antibiotics at 37° C. in 5% CO2. Confluent preadipocytes were induced to differentiate with a standard differentiation medium consisting of DMEM-F 10 (1:1, vol/vol) medium supplemented with 1% FBS, 1 μM dexamethasone, IBMX (0.5 mM) and antibiotics (1% penicillin/streptomycin). Preadipocytes were maintained in this differentiation medium for 3 days and subsequently cultured in adipocyte medium. Cultures were re-fed every 2-3 days to allow 90% cells to reach fully differentiation before conducting chemical treatment. Chemicals were freshly diluted in adipocyte medium before treatment. Cells were washed with fresh adipocyte medium, re-fed with medium containing the different treatments, and incubated at 37° C. in 5% CO2 in air before analysis. Cell viability was measured via trypan blue exclusion.
Adipocytes were incubated with adipocyte medium for 24 h with or without GDP, BK 8644, GDP plus BK8644 before total RNA extraction. […]

[2] = tested on: 3T3-L1 and UCP2-transfected 3T3-L1 cells; assay: Mitochondrial membrane potential (JC-1 fluorometry) in adipocytes; settings: for mitochondrial potential: 4 h
Protocol: (§1) Adipocytes were incubated with adipocyte medium for 4 h with or without 1α,25-(OH)2-D3. Mitochondrial membrane potential was analyzed fluorometrically with a lipophilic cationic dye JC-1 (5,5′,6,6′-tetrachloro-1,1′,3,3′-tetraethylbenzimidazol carbocyanine iodide) using a mitochondrial potential detection kit (Biocarta, San Diego, Calif.). Mitochondrial potential was determined as the ratio of red fluorescence (excitation 550 nm, emission 600 nm) and green fluorescence (excitation 485 nm, emission 535 nm) using a fluorescence microplate reader.
as §1, with “GDP, BK 8644, GDP plus BK8644.” for “1α,25-(OH)2-D3.”

[3] = tested on: 3T3-L1 and UCP2-transfected 3T3-L1 adipocytes; assay: Mitochondrial calcium (rhod-2 AM fluorescence) in adipocytes
Protocol: (§2) Rhod-2/AM was used for qualitative measurement of [Ca^2+]m. Cells were incubated with the Ca^2+-sensitive fluorescent indicator rhod-2 AM (1-1.5 μM) for at least 1 h at 37° C. in 5% CO2 in humidified air. Because rhod-2 AM consists of a cationic rhodamine molecule, it accumulates preferentially inside the mitochondria due to their negative membrane potential. After loading, the cells were kept in rhod-2 AM-free standard solution for at least 1 h to allow conversion of the dye to its Ca^2+-sensitive, free acid form. Images of [Ca^2+]m were acquired at the wavelength of 552 nm excitation and 590 nm emission using the intracellular imaging system described above. Because rhod-2 is not a ratiometric dye, its fluorescence intensity was not calibrated to obtain absolute values of [Ca^2+]m. Instead, only relative values were recorded as fluorescence signal (F) relative to the control value (F0). After baseline calcium concentration was measured, the 1α,25-(OH)2-D3 was immediately applied to the cells and the calcium concentration was measured again.
as §2, with “the Ca^2+ sensitive” for “the Ca^2+-sensitive”, “AM (1-1·5 μM),” for “AM (1-1.5 μM)”, “at 370 degrees Celsius” for “at 37° C.”, “air. Since” for “air. Because”, “above. Since” for “above. Because”, “(F0).” for “(F0). After baseline calcium concentration was measured, the 1α,25-(OH)2-D3 was immediately applied to the cells and the calcium concentration was measured again.”

Compound | caspase-3 expression ([1]; high dose 100 nM, 24 h, control and UCP2-transfected 3T3-L1 cells, P<0.01) | caspase-3 expression ([1]; physiological low doses 0.1 nM, 1 nM, 5 nM, 10 nM, 24 h, control and UCP2-transfected 3T3-L1 cells, P<0.05) | mitochondrial potential ([2]; high dose (100 nM)) | mitochondrial potential ([2]; lower doses, 3T3-L1 and UCP2 stably transfected 3T3-L1 cells) | mitochondrial Δψ in L1-UCP2 cells ([2]; physiological doses (0.1-10 nM), L1-UCP2 cells) | mitochondrial calcium [Ca2+]m ([3]; high dose (100 nM)) | increase of mitochondrial Ca2+ ([3]; high dose (100 nM), P<0.05) [%] | mitochondrial calcium [Ca2+]m ([3]; low doses (0.1 nM to 10 nM), control and UCP2-transfected cells) | suppression of mitochondrial Ca2+ levels ([3]; physiological doses (0.1-10 nM)) [%] | caspase-3 expression ([1]; 3T3-L1 cells, Bay K 8644 5-100 nM range of FIG. 15) | effect on mitochondrial potential ([2]; 3T3-L1 cells, BK8644 alone) | mitochondrial calcium ([3]; 3T3-L1 cells, p<0.05)
C=C1/C(=C\C=C2/CCC[C@]3(C)[C@@H]([C@H](C)CCCC(C)(C)O)CC[C@@H]23)C[C@@H](O)C[C@@H]1O [1α,25-(OH)2-D3, 1α,25-dihydroxyvitamin D3] | stimulated | inhibited | collapse | significantly increase | restored | significantly stimulated | 25 | decreased; also recorded: significant decreases | ~50 |  |  | 
COC(=O)C1=C(C)NC(C)=C([N+](=O)[O-])C1c1ccccc1C(F)(F)F (stereo not drawn) [Bay K 8644] |  |  |  |  |  |  |  |  |  | dose-dependently | no effect | increased
